Test results: ChEMBL document CHEMBL3994634, “Synthesis of new chromeno-carbamodithioate derivatives and preliminary evaluation of their antioxidant activity and molecular docking studies” (Bioorg Med Chem Lett, 2017)

What was measured:
[1] = Antioxidant activity assessed as […] radical scavenging activity by spectrophotometric method relative to control; type: functional; parameters: concentration or dose not given beside the values
[2] = Antioxidant activity assessed as inhibition of […] radical by spectrophotometric method; type: functional

Row | SMILES | IC50 [2] | Activity [1]
1 | COc1ccccc1N1CCN(C(=S)SCC(O)COc2ccc3c(=O)c(C)c(C)oc3c2)CC1 (stereo not given) | 1590 µM | 31.6%
2 | Cc1oc2cc(OCC(O)CSC(=S)N3CCN(Cc4ccc5c(c4)OCO5)CC3)ccc2c(=O)c1C (stereo not given) | 1380 µM | 36.8%
3 | Cc1oc2cc(OCC(O)CSC(=S)N3CCN(c4ccc(F)cc4)CC3)ccc2c(=O)c1C (stereo not given) | 2040 µM | 24.8%
4 | O=C1O[C@H]([C@@H](O)CO)C(O)=C1O [ASCORBIC ACID] | 1640 µM | 30.4%
5 | Cc1oc2cc(OCC(O)CSC(=S)N3CCN(c4ccccc4)CC3)ccc2c(=O)c1C (stereo not given) | 2240 µM | 24.8%
6 | Cc1oc2cc(OCC(O)CSC(=S)N3CCN(C)CC3)ccc2c(=O)c1C (stereo not given) | 1720 µM | 29.4%

More lines, in order of falling IC50 [2], values ahead:

Row | IC50 [2] | SMILES | Activity [1]
7 | 1710 µM | CCN(CC)C(=S)SCC(O)COc1ccc2c(=O)c(C)c(C)oc2c1 (stereo not given) | 29.5%
8 | 1620 µM | Cc1oc2cc(OCC(O)CSC(=S)N3CCN(C(c4ccccc4)c4ccccc4)CC3)ccc2c(=O)c1C (stereo not given) | 30.9%
9 | 1570 µM | Cc1oc2cc(OCC(O)CSC(=S)N3CCC(Cc4ccccc4)CC3)ccc2c(=O)c1C (stereo not given) | 31.8%
10 | 1400 µM | Cc1oc2cc(OCC(O)CSC(=S)N3CCOCC3)ccc2c(=O)c1C (stereo not given) | 35.6%
